# Counter-ions that a name gives are not always drawn.
# Biological target: IRE1α (Homo sapiens (Human), UniProt O75460, D688N)
# Assay: IRE1α TR-FRET competition binding assay (IRE1α HTRF)
# Conditions: TR-FRET competition binding to kinase domain of IRE1α
# Procedure, shortened: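 Competition of compounds against an Alexa fluor 647 ATP-site probe (2 nM final) for the His-tagged kinase domain (0.25 nM final), detected via 2 nM Eu anti-His antibody by TR-FRET, 665 and 615 nm emission. Protein–antibody premix 1 h, 4° C; reaction 1 h, room temperature, pH 7.5 HEPES buffer.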
# Sequence of IRE1α (O75460 547-977 D688N): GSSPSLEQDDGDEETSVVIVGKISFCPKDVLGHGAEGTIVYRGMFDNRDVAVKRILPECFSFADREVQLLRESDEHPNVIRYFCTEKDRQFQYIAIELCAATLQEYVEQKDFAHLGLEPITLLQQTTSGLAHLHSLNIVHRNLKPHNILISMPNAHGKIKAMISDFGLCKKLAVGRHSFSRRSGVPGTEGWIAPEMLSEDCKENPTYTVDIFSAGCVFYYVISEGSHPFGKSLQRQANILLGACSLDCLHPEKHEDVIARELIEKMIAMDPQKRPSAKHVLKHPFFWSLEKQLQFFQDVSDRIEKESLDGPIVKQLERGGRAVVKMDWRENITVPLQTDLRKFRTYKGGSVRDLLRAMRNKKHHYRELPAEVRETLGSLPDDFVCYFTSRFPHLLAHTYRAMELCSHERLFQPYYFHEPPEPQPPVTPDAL
row,IC50 [pM],Compound
1,180,"CC(C)n1c(=O)c(-c2ccc(NS(=O)(=O)CC3CCCCC3)nc2)cc2cnc(N[C@H]3CC[C@H](N(C)C)CC3)nc21 [Compound 152, 1-Cyclohexyl-N-(5-(2-(((1r,4r)-4-(dimethylamino)cyclohexyl)amino)-8-isopropyl-7-oxo-7,8-dihydropyrido[2,3-d]pyrimidin-6-yl)pyridin-2-yl)methanesulfonamide]"
2,230,"CC(C)n1c(=O)c(-c2ccc(NS(=O)(=O)Cc3ccc(F)cc3)c(F)c2)cc2cnc(N[C@H]3CC[C@H](N(C)CCF)CC3)nc21 [Compound 155, N-(2-Fluoro-4-(2-(((1r,4r)-4-((2-fluoroethyl)(methyl)amino)cyclohexyl)amino)-8-isopropyl-7-oxo-7,8-dihydropyrido[2,3-d]pyrimidin-6-yl)phenyl)-1-(4-fluorophenyl)methanesulfonamide]"
3,180,"CC(C)n1c(=O)c(-c2ccc(NS(=O)(=O)CC3CC(F)(F)C3)c(F)c2)cc2cnc(N[C@H]3CC[C@H](N(C)CCF)CC3)nc21 [Compound 156, 1-(3,3-Difluorocyclobutyl)-N-(2-fluoro-4-(2-(((1r,4r)-4-((2-fluoroethyl)(methyl)amino)cyclohexyl)amino)-8-isopropyl-7-oxo-7,8-dihydropyrido[2,3-d]pyrimidin-6-yl)phenyl)methanesulfonamide]"
4,140,"CC(C)n1c(=O)c(-c2ccc(NS(=O)(=O)CCC(F)(F)F)c(F)c2)cc2cnc(N[C@H]3CC[C@H](N(C)CCF)CC3)nc21 [Compound 157, 3,3,3-trifluoro-N-(2-Fluoro-4-(2-(((1r,4r)-4-((2-fluoroethyl)(methyl)amino)cyclohexyl)amino)-8-isopropyl-7-oxo-7,8-dihydropyrido[2,3-d]pyrimidin-6-yl)phenyl)propane-1-sulfonamide]"
5,570,"CC(C)n1c(=O)c(-c2cc(F)c(NS(=O)(=O)Cc3ccn(CC(F)(F)F)n3)c(F)c2F)cc2cnc(N[C@@H]3CNC[C@@H](F)C3)nc21 [Compound 158, N-(2,3,6-Trifluoro-4-(2-(((3S,5S)-5-fluoropiperidin-3-yl)amino)-8-isopropyl-7-oxo-7,8-dihydropyrido[2,3-d]pyrimidin-6-yl)phenyl)-1-(1-(2,2,2-trifluoroethyl)-1H-pyrazol-3-yl)methanesulfonamide]"
6,180,"CCCS(=O)(=O)Nc1ccc(-c2nc3cnc(N[C@H]4CC[C@H](N(C)C)CC4)nc3n(C(C)C)c2=O)c(F)c1 [Compound 161, N-(4-(2-(((1r,4r)-4-(Dimethylamino)cyclohexyl)amino)-8-isopropyl-7-oxo-7,8-dihydropteridin-6-yl)-3-fluorophenyl)propane-1-sulfonamide]"
7,1300,"CC(C)n1c(=O)c(-c2ccc(NS(=O)(=O)N3CCCCC3)c(F)c2)nc2cnc(N[C@@H]3CNC[C@@H](F)C3)nc21 [Compound 162, N-(2-Fluoro-4-(2-(((3S,5S)-5-fluoropiperidin-3-yl)amino)-8-isopropyl-7-oxo-7,8-dihydropteridin-6-yl)phenyl)piperidine-1-sulfonamide]"
8,970,"CC(C)n1c(=O)c(-c2ccc(NS(=O)(=O)N3CCCC3)c(F)c2)nc2cnc(N[C@@H]3CNC[C@@H](F)C3)nc21 [Compound 163, N-(2-Fluoro-4-(2-(((3S,5S)-5-fluoropiperidin-3-yl)amino)-8-isopropyl-7-oxo-7,8-dihydropteridin-6-yl)phenyl)pyrrolidine-1-sulfonamide]"
9,430,"CC(C)n1c(=O)c(-c2ccc(NS(=O)(=O)N(C)C)c(F)c2)nc2cnc(N[C@@H]3CNC[C@@H](F)C3)nc21 [Compound 164, 6-(4-(Dimethylsulfamoylamino)-3-fluoro-phenyl)-2-(((3S,5S)-5-fluoro-3-piperidyl)amino)-8-isopropyl-7-oxo-pteridine]"
10,100,"CCC(F)(F)CS(=O)(=O)Nc1ccc(-c2nc3cnc(N[C@H]4CC[C@H](N(C)C)CC4)nc3n(C(C)C)c2=O)cc1F [Compound 165, N-(4-(2-(((1r,4r)-4-(Dimethylamino)cyclohexyl)amino)-8-isopropyl-7-oxo-7,8-dihydropteridin-6-yl)-2-fluorophenyl)-2,2-difluorobutane-1-sulfonamide hydrochloride]"
11,90,"Cc1ccc(CS(=O)(=O)Nc2ccc(-c3nc4cnc(N[C@@H]5CNC[C@@H](F)C5)nc4n(C(C)C)c3=O)cc2F)c(C#N)c1 [Compound 166, 1-(2-Cyano-4-methylphenyl)-N-(2-fluoro-4-(2-(((3S,5S)-5-fluoropiperidin-3-yl)amino)-8-isopropyl-7-oxo-7,8-dihydropteridin-6-yl)phenyl)methanesulfonamide]"
12,180,"CC(C)n1c(=O)c(-c2ccc(NS(=O)(=O)c3ccccc3Cl)c(F)c2)nc2cnc(N[C@H]3CC[C@H](N(C)C)CC3)nc21 [Compound 167, 2-Chloro-N-(4-(2-(((1r,4r)-4-(dimethylamino)cyclohexyl)amino)-8-isopropyl-7-oxo-7,8-dihydropteridin-6-yl)-2-fluorophenyl)benzenesulfonamide]"
13,690,"CC(C)n1c(=O)c(-c2c(F)cc(NS(=O)(=O)CCC(F)(F)F)cc2F)nc2cnc(N[C@H]3CC[C@H](N(C)C)CC3)nc21 [Compound 169, N-(4-(2-(((1r,4r)-4-(Dimethylamino)cyclohexyl)amino)-8-isopropyl-7-oxo-7,8-dihydropteridin-6-yl)-3,5-difluorophenyl)-3,3,3-trifluoropropane-1-sulfonamide]"
14,130,"Cc1ccc(CS(=O)(=O)Nc2c(F)cc(-c3nc4cnc(N[C@@H]5CNC[C@@H](F)C5)nc4n(C(C)C)c3=O)c(F)c2F)cc1 [Compound 170, 1-p-Tolyl-N-(2,3,6-trifluoro-4-(2-(((3S,5S)-5-fluoropiperidin-3-yl)amino)-8-isopropyl-7-oxo-7,8-dihydropteridin-6-yl)phenyl)methanesulfonamide hydrochloride]"
15,120,"CC(C)n1c(=O)c(-c2cc(F)c(NS(=O)(=O)Cc3ccc(F)cc3)c(F)c2F)nc2cnc(N[C@@H]3CNC[C@@H](F)C3)nc21 [Compound 171, 1-(4-Fluorophenyl)-N-(2,3,6-trifluoro-4-(2-(((3S,5S)-5-fluoropiperidin-3-yl)amino)-8-isopropyl-7-oxo-7,8-dihydropteridin-6-yl)phenyl)methanesulfonamide hydrochloride]"
16,350,"CC(C)n1c(=O)c(-c2c(F)cc(NS(=O)(=O)CCC(F)(F)F)c(F)c2F)nc2cnc(N[C@H]3CC[C@H](N(C)C)CC3)nc21 [Compound 172, N-(4-(2-(((1r,4r)-4-(Dimethylamino)cyclohexyl)amino)-8-isopropyl-7-oxo-7,8-dihydropteridin-6-yl)-2,3,5-trifluorophenyl)-3,3,3-trifluoropropane-1-sulfonamide hydrochloride]"
17,270,"COc1nc(NS(=O)(=O)c2ccccc2Cl)ccc1-c1nc2cnc(N[C@H]3CC[C@H](N(C)C)CC3)nc2n(C(C)C)c1=O [Compound 173, 2-Chloro-N-(5-(2-(((1r,4r)-4-(dimethylamino)cyclohexyl)amino)-8-isopropyl-7-oxo-7,8-dihydropteridin-6-yl)-6-methoxypyridin-2-yl)benzenesulfonamide]"
18,260,"CC(C)n1c(=O)c(-c2cc(F)c(NS(=O)(=O)Cc3ccc(F)cc3)cc2F)nc2cnc(N[C@H]3CC[C@H](N(C)C)CC3)nc21 [Compound 174, N-(4-(2-(((1r,4r)-4-(Dimethylamino)cyclohexyl)amino)-8-isopropyl-7-oxo-7,8-dihydropteridin-6-yl)-2,5-difluorophenyl)-1-(4-fluorophenyl)methanesulfonamide hydrochloride]"
19,140,"CC(C)n1c(=O)c(-c2cc(F)c(NS(=O)(=O)Cc3ccc(F)cc3)c(F)c2F)nc2cnc(N[C@H]3CC[C@H](N(C)C)CC3)nc21 [Compound 175, N-(4-(2-(((1r,4r)-4-(Dimethylamino)cyclohexyl)amino)-8-isopropyl-7-oxo-7,8-dihydropteridin-6-yl)-2,3,6-trifluorophenyl)-1-(4-fluorophenyl)methanesulfonamide hydrochloride]"
20,140,"CC(C)n1c(=O)c(-c2ccc(NS(=O)(=O)Cc3ccc(F)cc3)c(F)c2)nc2cnc(N[C@H]3CC[C@H](N(C)CCF)CC3)nc21 [Compound 176, N-(2-Fluoro-4-(2-(((1r,4r)-4-((2-fluoroethyl)(methyl)amino)cyclohexyl)amino)-8-isopropyl-7-oxo-7,8-dihydropteridin-6-yl)phenyl)-1-(4-fluorophenyl)methanesulfonamide]"
21,240,"CC(C)n1c(=O)c(-c2ccc(NS(=O)(=O)CCC(F)(F)F)c(F)c2)nc2cnc(N[C@H]3CC[C@H](N(C)CCF)CC3)nc21 [Compound 177, 3,3,3-Trifluoro-N-(2-fluoro-4-(2-(((1r,4r)-4-((2-fluoroethyl)(methyl)amino)cyclohexyl)amino)-8-isopropyl-7-oxo-7,8-dihydropteridin-6-yl)phenyl)propane-1-sulfonamide]"
22,260,"CC(C)n1c(=O)c(-c2ccc(NS(=O)(=O)c3ccccc3Cl)nc2)nc2cnc(N[C@H]3CC[C@H](N(C)C)CC3)nc21 [Compound 178, 2-Chloro-N-(5-(2-(((1r,4r)-4-(dimethylamino)cyclohexyl)amino)-8-isopropyl-7-oxo-7,8-dihydropteridin-6-yl)pyridin-2-yl)benzenesulfonamide]"
23,290,"CC(C)n1c(=O)c(-c2ccc(NS(=O)(=O)CC3CC(F)(F)C3)c(F)c2)nc2cnc(N[C@H]3CC[C@H](N(C)CCF)CC3)nc21 [Compound 180, 1-(3,3-Difluorocyclobutyl)-N-(2-fluoro-4-(2-(((1r,4r)-4-((2-fluoroethyl)(methyl)amino)cyclohexyl)amino)-8-isopropyl-7-oxo-7,8-dihydropteridin-6-yl)phenyl)methanesulfonamide]"
24,870,"CC(C)n1c(=O)c(-c2ccc(NS(=O)(=O)CCN3CC(F)(F)C3)c(F)c2)nc2cnc(N[C@H]3CC[C@H](N(C)C)CC3)nc21 [Compound 182, 2-(3,3-Difluoroazetidin-1-yl)-N-(4-(2-(((1r,4r)-4-(dimethylamino)cyclohexyl)amino)-8-isopropyl-7-oxo-7,8-dihydropteridin-6-yl)-2-fluorophenyl)ethane-1-sulfonamide]"

# Source: US12344603B2 (Genentech, Inc., priority 2020, dated 2025)
